Experimental data published in patent publication EP0053029A1, “Non enkephalin-like peptides, their production, compositions containing them, and their medical and veterinary use” (PENINSULA LABORATORIES INCORPORATED, priority 1980, dated 1982).
Where “and” joins values, the source holds several entries; their conditions need not be identical. Equal entries are not always repeated. Where a SMILES comes first, the peptide text is derived from it. [ ]: non-standard residue; d: D form. NMeF = CN[C@@H](Cc1ccccc1)C(=O)O; Thz = O=C(O)[C@@H]1CSCN1

Tested on: rat
Test: rat tail withdrawal assay (hot water, 55°C)
Type: in vivo
Details: for analgesic activity: general statement, route and dose not stated
Procedure: The acetate salts of formula I described in Examples 1 to 3 were tested for analgesic activity in the rat tail withdrawal assay. […] Latencies of 5 seconds or greater indicate strong analgesic activity and 20 seconds is a maximum response in this test. The peptides were administered intracisternally or intravenously.
The formula I acetate of Example 2 was dissolved in a sufficient sterile, distilled water to give an injection volume of 1 ml/kg of body weight and administered to rats as a bolus i.v. injection at several dosages.

Compound: CN(C(=O)[C@@H]1CCCN1C(=O)[C@@H](N)Cc1ccc(O)cc1)[C@@H](Cc1ccccc1)C(=O)N1CCC[C@@H]1CO [Example 3, L-Tyrosyl-L-Prolyl-N-Methyl-L-Phenylalanyl-D-Prolinol· Acetate]
- analgesic activity: high analgesic activity

Compound: CN(C(=O)[C@@H]1CCCN1C(=O)[C@@H](N)Cc1ccc(O)cc1)[C@@H](Cc1ccccc1)C(=O)N1CCC[C@@H]1C(N)=O [Example 2, L-Tyrosyl-L-Prolyl-N-Methyl-L-Phenylalanyl-D-Prolinamide-Acetate] (H-YP[NMeF][dP]-NH2)
- Latency of Tail Withdrawal (i.v. bolus, 2.5 mg/kg, 5 min. after injection): 2 s
- Latency of Tail Withdrawal (i.v. bolus, 5.0 mg/kg, 5 min. after injection): 8.4 ± 3.6 s
- Latency of Tail Withdrawal (i.v. bolus, 10.0 mg/kg, 5 min. after injection): 10.2 ± 3.2 s
- Latency of Tail Withdrawal (i.v. bolus, 10.0 mg/kg, 15 min. after injection): 11.1 ± 3.1 s
- Latency of Tail Withdrawal (i.v. bolus, 10.0 mg/kg, 30 min. after injection): 7.5 ± 2.5 s
- Latency of Tail Withdrawal (i.v. bolus, 10.0 mg/kg, 60 min. after injection): 6.4 ± 2.3 s
- Latency of Tail Withdrawal (i.v., 2.5 mg/kg, 15 min. after injection): 3.5 s
- Latency of Tail Withdrawal (i.v., 2.5 mg/kg, 30 min. after injection): 3.0 s
- Latency of Tail Withdrawal (i.v., 2.5 mg/kg, 60 min. after injection): 2.5 s
- Latency of Tail Withdrawal (i.v., 5.0 mg/kg, 15 min. after injection): 10.3 ± 3.1 s
- Latency of Tail Withdrawal (i.v., 5.0 mg/kg, 30 min. after injection): 9.1 ± 3.4 s
- Latency of Tail Withdrawal (i.v., 5.0 mg/kg, 60 min. after injection): 7.8 ± 3.0 s
- Comments (i.v., 5.0 mg/kg, observed behaviour): Individual rats showed 20 sec. latencies and morphine-like symptoms

Compound: CN(C(=O)[C@@H]1CSCN1C(=O)[C@@H](N)Cc1ccc(O)cc1)[C@@H](Cc1ccccc1)C(=O)N1CCC[C@@H]1C(N)=O [Tyr-Thz-N-Me-Phe-D-Pro-NFi2] (H-Y[Thz][NMeF][dP]-NH2)
- analgesic activity: high analgesic activity

Compound: NC(=O)[C@@H]1CSCN1C(=O)[C@H](Cc1ccccc1)NC(=O)[C@@H]1CCCN1C(=O)[C@@H](N)Cc1ccc(O)cc1 [Example 1, L-Tyrosyl-L-Prolyl-L-Phenylalanyl-L-Thiazolidine-4-carboxyl·amide Acetate] (H-YPF[Thz]-NH2)
- analgesic activity: high analgesic activity

Compound: CN1CC[C@]23c4c5ccc(O)c4O[C@H]2[C@@H](O)C=C[C@H]3[C@H]1C5 [morphine, reference compound]
- Latency of Tail Withdrawal (rat, in vivo, iv, 2.5 mg/kg): 5 s and 6 s and 4.1 s
- Comments (rat, in vivo, iv, 5 mg/kg): Catalepsy Rigidity
- Latency of Tail Withdrawal (rat, in vivo, iv, 5 mg/kg): 20 s
- Latency of Tail Withdrawal (rat, in vivo, iv, 7.5 mg/kg): 20 s
